This is an account of results in PubChem BioAssay AID1259407 (Chemical Carcinogenesis Research Information System (CCRIS), 2018).

For this data set, the system named is CCRIS mutagenicity, Ames/micronucleus/aberration tests. In words: CCRIS mutagenicity studies.
The mark [1] stands for this setting: Test System: AMES SALMONELLA TYPHIMURIUM, Strain/Indicator: TA100, Metabolic Activation: NONE, Method: STANDARD PLATE.
[2] abbreviates: Test System: AMES SALMONELLA TYPHIMURIUM, Strain/Indicator: TA98, Metabolic Activation: NONE, Method: PREINCUBATION
The mark [3] stands for this setting: Test System: AMES SALMONELLA TYPHIMURIUM, Strain/Indicator: TA100, Metabolic Activation: NONE, Method: PREINCUBATION

Activity calls are given as the source filed them. No rule for the calls is given here.

Consider `COc1cc(N)c(OC)cc1N`, for which the mutagenic call was “inactive; negative” (Test System: AMES SALMONELLA TYPHIMURIUM, Strain/Indicator: TA98, Metabolic Activation: NONE, Method: STANDARD PLATE); “active; positive” (Test System: AMES SALMONELLA TYPHIMURIUM, Strain/Indicator: TA98, Metabolic Activation: RAT, LIVER, S-9, AROCLOR 1254, Method: STANDARD PLATE); “inactive; negative” under setting [1]; “active; positive” (Test System: AMES SALMONELLA TYPHIMURIUM, Strain/Indicator: TA100, Metabolic Activation: RAT, LIVER, S-9, AROCLOR 1254, Method: STANDARD PLATE); “inactive; negative” (Test System: AMES SALMONELLA TYPHIMURIUM, Strain/Indicator: TA1535, Metabolic Activation: NONE, Method: STANDARD PLATE); “inactive; negative” (Test System: AMES SALMONELLA TYPHIMURIUM, Strain/Indicator: TA1535, Metabolic Activation: RAT, LIVER, S-9, AROCLOR 1254, Method: STANDARD PLATE). The mutagenic call runs as follows: (Test System: AMES SALMONELLA TYPHIMURIUM, Strain/Indicator: TA1537, Metabolic Activation: NONE, Method: STANDARD PLATE) “inactive; negative”; (Test System: AMES SALMONELLA TYPHIMURIUM, Strain/Indicator: TA1537, Metabolic Activation: RAT, LIVER, S-9, AROCLOR 1254, Method: STANDARD PLATE) “active; positive”; (Test System: AMES SALMONELLA TYPHIMURIUM, Strain/Indicator: TA1538, Metabolic Activation: NONE, Method: STANDARD PLATE) “active; positive”; (Test System: AMES SALMONELLA TYPHIMURIUM, Strain/Indicator: TA1538, Metabolic Activation: RAT, LIVER, S-9, AROCLOR 1254, Method: STANDARD PLATE) “active; positive”.
Take `O=c1c(O[C@@H]2O[C@H](CO)[C@H](O)[C@H](O)[C@H]2O)c(-c2ccc(O)c(O)c2)oc2cc(O)cc(O)c12`: the mutagenic call runs as follows: (Test System: Ames Salmonella typhimurium, Strain/Indicator: TA98, Metabolic Activation: None, Method: Standard plate) “inactive; negative”; (Test System: Ames Salmonella typhimurium, Strain/Indicator: TA98, Metabolic Activation: Rat, Liver, S-9, Aroclor 1254, Method: Standard plate) “inactive; negative”.
In the case of `c1cc2cnncc2cn1`, the mutagenic call under setting [2] was “inactive; negative”; the mutagenic call (Test System: AMES SALMONELLA TYPHIMURIUM, Strain/Indicator: TA98, Metabolic Activation: RAT, LIVER, S-9, PCB, Method: PREINCUBATION) was “inactive; negative”; the mutagenic call under setting [3] is “inactive; negative”; the mutagenic call (Test System: AMES SALMONELLA TYPHIMURIUM, Strain/Indicator: TA100, Metabolic Activation: RAT, LIVER, S-9, PCB, Method: PREINCUBATION) is “inactive; negative”.
Take `O=[N+]([O-])c1cccc(S(=O)(=O)OC[C@@H]2CO2)c1`: the mutagenic call under setting [1] was “active; positive”.
As to `COC(=O)C1Cc2c([nH]c3ccc([N+](=O)[O-])cc23)C(C)N1N=O` (stereo not given), the mutagenic call reads like this: (Test System: AMES SALMONELLA TYPHIMURIUM, Strain/Indicator: TA98(NR), Metabolic Activation: NONE, Method: STANDARD PLATE) “active; positive”; (Test System: AMES SALMONELLA TYPHIMURIUM, Strain/Indicator: TA98(NR), Metabolic Activation: RAT, LIVER, S-9, AROCLOR 1254, Method: STANDARD PLATE) “inactive; negative”.
With `NNc1ccccc1`, the mutagenic call runs as follows: (End Point: IN VITRO CHROMOSOMAL ABERRATIONS, Test System: CHL CELLS, Metabolic Activation: NONE) “active; positive (structural changes)”; (End Point: IN VITRO CHROMOSOMAL ABERRATIONS, Test System: CHL CELLS, Metabolic Activation: RAT, LIVER, S-9, SODIUM PHENOBARBITAL AND 5,6-BENZOFLAVONE) “active; positive (structural changes); authors report equivocal results for ploidy chang”; under setting [2], “active; positive”; (Test System: AMES SALMONELLA TYPHIMURIUM, Strain/Indicator: TA98, Metabolic Activation: RAT LIVER S-9, PHENOBARBITAL AND BETA-NAPHTHOFLAVONE, Method: PREINCUBATION) “active; positive”; under setting [3], “inactive; negative”; under setting [1], “active; positive”. The mutagenic call (Test System: AMES SALMONELLA TYPHIMURIUM, Strain/Indicator: TA100, Metabolic Activation: RAT KIDNEY, MICROSOMES, Method: STANDARD PLATE) was “active; positive”; the mutagenic call (Test System: AMES SALMONELLA TYPHIMURIUM, Strain/Indicator: TA100, Metabolic Activation: RAT LIVER S-9, PHENOBARBITAL AND BETA-NAPHTHOFLAVONE, Method: PREINCUBATION) is “inactive; negative”; the mutagenic call (Test System: AMES SALMONELLA TYPHIMURIUM, Strain/Indicator: TA1530, Metabolic Activation: NONE, Method: STANDARD PLATE) is “active; positive”; the mutagenic call (Test System: AMES SALMONELLA TYPHIMURIUM, Strain/Indicator: TA1535, Metabolic Activation: NONE, Method: PREINCUBATION) was “inactive; negative”; the mutagenic call (Test System: AMES SALMONELLA TYPHIMURIUM, Strain/Indicator: TA1535, Metabolic Activation: RAT LIVER S-9, PHENOBARBITAL AND BETA-NAPHTHOFLAVONE, Method: PREINCUBATION) is “inactive; negative”; the mutagenic call (Test System: AMES SALMONELLA TYPHIMURIUM, Strain/Indicator: TA1535, Metabolic Activation: RAT, LIVER, S-9, AROCLOR 1254, Method: PREINCUBATION) is “inactive; negative”. Moreover, the mutagenic call was “active; positive” (Test System: AMES SALMONELLA TYPHIMURIUM, Strain/Indicator: TA1537, Metabolic Activation: NONE, Method: PREINCUBATION); “active; positive” (Test System: AMES SALMONELLA TYPHIMURIUM, Strain/Indicator: TA1537, Metabolic Activation: RAT LIVER S-9, PHENOBARBITAL AND BETA-NAPHTHOFLAVONE, Method: PREINCUBATION); “active; positive” (Test System: AMES SALMONELLA TYPHIMURIUM, Strain/Indicator: TA1537, Metabolic Activation: RAT, LIVER, S-9, AROCLOR 1254, Method: PREINCUBATION); “active; positive” (Test System: AMES SALMONELLA TYPHIMURIUM, Strain/Indicator: TA2638, Metabolic Activation: NONE, Method: STANDARD PLATE); “active; positive” (Test System: E. COLI, Strain/Indicator: WP2 (PKM101), Metabolic Activation: NONE, Method: STANDARD PLATE); “active; positive” (Test System: E. COLI, Strain/Indicator: WP2 UVRA (PKM101), Metabolic Activation: NONE, Method: STANDARD PLATE). Also, the mutagenic call (Test System: E.COLI, Strain/Indicator: WP2UVRA, Metabolic Activation: NONE, Method: PREINCUBATION) is “active; positive” and the mutagenic call (Test System: E.COLI, Strain/Indicator: WP2UVRA, Metabolic Activation: RAT LIVER S-9, PHENOBARBITAL AND BETA-NAPHTHOFLAVONE, Method: PREINCUBATION) is “active; positive”.
For the compound `CC1(C)C[C@@H]2[C@@]3(C(=O)O)C[C@@]3(C=O)C(C=O)=C[C@]2(O)C1`, the mutagenic call (Test System: CHINESE HAMSTER V-79, Strain/Indicator: V-79/6-THIOGUANINE (HGPRT), Metabolic Activation: NONE) was “inactive; negative”.
